Reference: ChEMBL document CHEMBL1139685, “Antimalarial activity of N-alkyl amine, carboxamide, sulfonamide, and urea derivatives of a dispiro-1,2,4-trioxolane piperidine” (Bioorg Med Chem Lett, 2006)
Converted amounts (≈) assume the structure as drawn.

Columns and labels:
Mus musculus [1] = assay: Survival of MORO mice (Mus musculus) infected with Plasmodium berghei at 10 mg/kg, perorally after 30 day post-infection; format: functional; settings: route oral
Mus musculus [2] = assay: Survival of MORO mice (Mus musculus) infected with Plasmodium berghei at 10 mg/kg, subcutaneously after 30 day post-infection; format: functional; settings: route subcutaneous
Plasmodium falciparum [3] = assay: Antimalarial activity against Plasmodium falciparum K1; format: functional, organism-based
Plasmodium falciparum [4] = assay: Antimalarial activity against Plasmodium falciparum NF54; format: functional, organism-based
Plasmodium berghei [5] = assay: Antimalarial activity in Plasmodium berghei infected MORO mice (Mus musculus) at 10 mg/kg peroral dose; format: functional; settings: route oral
Plasmodium berghei [6] = assay: Antimalarial activity in Plasmodium berghei infected MORO mice (Mus musculus) at 10 mg/kg subcutaneous dose; format: functional
[7] = Partition coefficient, logP of the compound; format: physicochemical; settings: octanol/water
[8] = Lipophilicity, LogD at pH 7.4; format: physicochemical; settings: buffer

Compound: O=C(c1ccncc1)N1CCC2(CC1)OOC1(O2)C2CC3CC(C2)CC1C3 (centres undefined)
- Activity (Mus musculus [1]): 6.7 days
- Activity (Mus musculus [2]): 7 days

Compound: CC(C)(C)NC(=O)N1CCC2(CC1)OOC1(O2)C2CC3CC(C2)CC1C3 (centres undefined)
- IC50 (Plasmodium falciparum [3]): 0.98 ng/mL (≈ 2.69 nM)
- IC50 (Plasmodium falciparum [4]): 1.8 ng/mL (≈ 4.94 nM)
- Activity (Mus musculus [1]): 6.7 days
- Activity (Mus musculus [2]): 9.7 days

Compound: O=S(=O)(c1ccccc1)N1CCC2(CC1)OOC1(O2)C2CC3CC(C2)CC1C3 (centres undefined)
- IC50 (Plasmodium falciparum [3]): 1.1 ng/mL (≈ 2.71 nM)
- IC50 (Plasmodium falciparum [4]): 1.2 ng/mL (≈ 2.96 nM)
- Activity (Plasmodium berghei [5]): 71%
- Activity (Plasmodium berghei [6]): >99.99%
- Activity (Mus musculus [1]): 6 days
- Activity (Mus musculus [2]): 10.3 days
- logP [7]: 5.5

Compound: CC(=O)N1CCC2(CC1)OOC1(O2)C2CC3CC(C2)CC1C3 (centres undefined)
- IC50 (Plasmodium falciparum [3]): 0.82 ng/mL (≈ 2.67 nM)
- IC50 (Plasmodium falciparum [4]): 0.93 ng/mL (≈ 3.03 nM)
- Activity (Plasmodium berghei [5]): 81%
- Activity (Plasmodium berghei [6]): 85%
- Activity (Mus musculus [1]): 6.7 days
- Activity (Mus musculus [2]): 7.3 days
- logP [7]: 3.8

Compound: O=S(=O)(Cc1ccccc1)N1CCC2(CC1)OOC1(O2)C2CC3CC(C2)CC1C3 (centres undefined)
- IC50 (Plasmodium falciparum [3]): 1.7 ng/mL (≈ 4.05 nM)
- IC50 (Plasmodium falciparum [4]): 4.1 ng/mL (≈ 9.77 nM)
- Activity (Mus musculus [1]): 5.7 days
- Activity (Mus musculus [2]): 8 days

Compound: O=C(O)c1ccccc1C(=O)N1CCC2(CC1)OOC1(O2)C2CC3CC(C2)CC1C3 (centres undefined)
- IC50 (Plasmodium falciparum [3]): 22 ng/mL (≈ 53.2 nM)
- IC50 (Plasmodium falciparum [4]): 13 ng/mL (≈ 31.4 nM)
- Activity (Mus musculus [1]): 6.3 days
- Activity (Mus musculus [2]): 6.3 days
- logD [8]: 1.2

Compound: CC(C)N(C(=O)N1CCC2(CC1)OOC1(O2)C2CC3CC(C2)CC1C3)C(C)C (centres undefined)
- IC50 (Plasmodium falciparum [4]): 6.6 ng/mL (≈ 16.8 nM)
- Activity (Mus musculus [1]): 8.3 days
- Activity (Mus musculus [2]): 20.3 days

Compound: C[C@H]1[C@H](OC(=O)CCC(=O)O)O[C@@H]2O[C@@]3(C)CC[C@H]4[C@H](C)CC[C@@H]1[C@@]24OO3 [ARTESUNATE]
- Activity (Plasmodium berghei [5]): 65%
- Activity (Plasmodium berghei [6]): 65%
- Activity (Mus musculus [1]): 6.8 days
- Activity (Mus musculus [2]): 6.8 days

Compound: O=C(N1CCCC1)N1CCC2(CC1)OOC1(O2)C2CC3CC(C2)CC1C3 (centres undefined)
- IC50 (Plasmodium falciparum [3]): 3.9 ng/mL (≈ 10.8 nM)
- IC50 (Plasmodium falciparum [4]): 6.7 ng/mL (≈ 18.5 nM)
- Activity (Mus musculus [1]): 7.3 days
- Activity (Mus musculus [2]): 9.7 days

Compound: c1ccc(CN2CCC3(CC2)OOC2(O3)C3CC4CC(C3)CC2C4)cc1 (centres undefined)
- IC50 (Plasmodium falciparum [3]): 2.5 ng/mL (≈ 7.03 nM)
- IC50 (Plasmodium falciparum [4]): 2.6 ng/mL (≈ 7.31 nM)
- Activity (Mus musculus [1]): 6 days
- Activity (Mus musculus [2]): 10 days
- logD [8]: 3.5

Compound: c1cc(CN2CCC3(CC2)OOC2(O3)C3CC4CC(C3)CC2C4)ccn1 (centres undefined)
- IC50 (Plasmodium falciparum [3]): 0.4 ng/mL (≈ 1.12 nM)
- IC50 (Plasmodium falciparum [4]): 0.67 ng/mL (≈ 1.88 nM)
- Activity (Mus musculus [1]): 6.3 days
- Activity (Mus musculus [2]): 11 days
- logD [8]: 2.7

Compound: CC(C)(C)CC(=O)N1CCC2(CC1)OOC1(O2)C2CC3CC(C2)CC1C3 (centres undefined)
- Activity (Mus musculus [1]): 7.7 days
- Activity (Mus musculus [2]): 8.3 days

Compound: CCS(=O)(=O)CCN1CCC2(CC1)OOC1(O2)C2CC3CC(C2)CC1C3 (centres undefined)
- IC50 (Plasmodium falciparum [3]): 1 ng/mL (≈ 2.59 nM)
- IC50 (Plasmodium falciparum [4]): 2.9 ng/mL (≈ 7.52 nM)
- Activity (Mus musculus [1]): 7 days
- Activity (Mus musculus [2]): 8 days
- logD [8]: 2.3

Compound: COCC(=O)N1CC[C@]2(CC1)OO[C@]1(O2)C2CC3CC(C2)CC1C3
- IC50 (Plasmodium falciparum [3]): 0.95 ng/mL (≈ 2.82 nM)
- IC50 (Plasmodium falciparum [4]): 0.2 ng/mL (≈ 0.593 nM)
- Activity (Mus musculus [1]): 7.3 days
- Activity (Mus musculus [2]): 7.3 days

Compound: O=C(N1CCOCC1)N1CCC2(CC1)OOC1(O2)C2CC3CC(C2)CC1C3 (centres undefined)
- Activity (Mus musculus [1]): 8.7 days
- Activity (Mus musculus [2]): 9 days

Compound: CC(=O)Nc1ccc(S(=O)(=O)N2CCC3(CC2)OOC2(O3)C3CC4CC(C3)CC2C4)cc1 (centres undefined)
- IC50 (Plasmodium falciparum [3]): 1.4 ng/mL (≈ 3.03 nM)
- IC50 (Plasmodium falciparum [4]): 0.5 ng/mL (≈ 1.08 nM)
- Activity (Mus musculus [1]): 6.3 days
- Activity (Mus musculus [2]): 12 days

Compound: O=C(c1ccccc1)N1CCC2(CC1)OOC1(O2)C2CC3CC(C2)CC1C3 (centres undefined)
- IC50 (Plasmodium falciparum [3]): 0.35 ng/mL (≈ 0.947 nM)
- IC50 (Plasmodium falciparum [4]): 0.58 ng/mL (≈ 1.57 nM)
- Activity (Plasmodium berghei [5]): 93%
- Activity (Plasmodium berghei [6]): 99.9%
- Activity (Mus musculus [1]): 7 days
- Activity (Mus musculus [2]): 8.7 days
- logP [7]: 5.6

Compound: Cc1ccc(NC(=O)N2CCC3(CC2)OOC2(O3)C3CC4CC(C3)CC2C4)cc1 (centres undefined)
- IC50 (Plasmodium falciparum [3]): 2.3 ng/mL (≈ 5.77 nM)
- IC50 (Plasmodium falciparum [4]): 2.3 ng/mL (≈ 5.77 nM)
- Activity (Mus musculus [1]): 6 days
- Activity (Mus musculus [2]): 14.3 days

Compound: CO[C@H]1O[C@@H]2O[C@@]3(C)CC[C@H]4[C@H](C)CC[C@@H]([C@H]1C)[C@@]24OO3
- IC50 (Plasmodium falciparum [3]): 0.74 ng/mL (≈ 2.48 nM)
- IC50 (Plasmodium falciparum [4]): 1.2 ng/mL (≈ 4.02 nM)
- Activity (Plasmodium berghei [5]): 98%
- Activity (Plasmodium berghei [6]): 99.78%
- Activity (Mus musculus [1]): 7.9 days
- Activity (Mus musculus [2]): 9.1 days
- logP [7]: 3.3

Compound: NC(=O)N1CCC2(CC1)OOC1(O2)C2CC3CC(C2)CC1C3 (centres undefined)
- Activity (Mus musculus [1]): 8.3 days
- Activity (Mus musculus [2]): 8.7 days

Compound: C1CC2(CCN1)OOC1(O2)C2CC3CC(C2)CC1C3.Cl (centres undefined)
- IC50 (Plasmodium falciparum [3]): 0.15 ng/mL
- IC50 (Plasmodium falciparum [4]): 0.34 ng/mL
- Activity (Plasmodium berghei [5]): 59%
- Activity (Plasmodium berghei [6]): 84%
- Activity (Mus musculus [1]): 6.3 days
- Activity (Mus musculus [2]): 7.7 days
- logD [8]: 0.25

Compound: O=C(O)CCC(=O)N1CCC2(CC1)OOC1(O2)C2CC3CC(C2)CC1C3 (centres undefined)
- IC50 (Plasmodium falciparum [3]): 7.1 ng/mL (≈ 19.4 nM)
- IC50 (Plasmodium falciparum [4]): 7.2 ng/mL (≈ 19.7 nM)
- Activity (Plasmodium berghei [5]): 39%
- Activity (Plasmodium berghei [6]): 52%
- Activity (Mus musculus [1]): 6 days
- Activity (Mus musculus [2]): 6.3 days
- logP [7]: 2.3

Compound: CCS(=O)(=O)N1CCC2(CC1)OOC1(O2)C2CC3CC(C2)CC1C3 (centres undefined)
- IC50 (Plasmodium falciparum [3]): 0.38 ng/mL (≈ 1.06 nM)
- IC50 (Plasmodium falciparum [4]): 0.81 ng/mL (≈ 2.27 nM)
- Activity (Plasmodium berghei [5]): 85%
- Activity (Plasmodium berghei [6]): 99.94%
- Activity (Mus musculus [1]): 7 days
- Activity (Mus musculus [2]): 9.3 days

Compound: CN(C)C(=O)N1CCC2(CC1)OOC1(O2)C2CC3CC(C2)CC1C3 (centres undefined)
- IC50 (Plasmodium falciparum [3]): 0.7 ng/mL (≈ 2.08 nM)
- Activity (Mus musculus [1]): 7 days
- Activity (Mus musculus [2]): 7 days

Compound: CS(=O)(=O)N1CCC2(CC1)OOC1(O2)C2CC3CC(C2)CC1C3 (centres undefined)
- IC50 (Plasmodium falciparum [3]): 0.59 ng/mL (≈ 1.72 nM)
- IC50 (Plasmodium falciparum [4]): 0.64 ng/mL (≈ 1.86 nM)
- Activity (Plasmodium berghei [5]): 93%
- Activity (Plasmodium berghei [6]): 99.97%
- Activity (Mus musculus [1]): 6.7 days
- Activity (Mus musculus [2]): 10.3 days

Compound: O=C(Nc1ccc(Cl)cc1)N1CCC2(CC1)OOC1(O2)C2CC3CC(C2)CC1C3 (centres undefined)
- Activity (Mus musculus [1]): 6 days
- Activity (Mus musculus [2]): 13.7 days

Compound: O=C(Nc1ccccc1)N1CCC2(CC1)OOC1(O2)C2CC3CC(C2)CC1C3 (centres undefined)
- Activity (Mus musculus [1]): 7 days
- Activity (Mus musculus [2]): 19.7 days

Compound: O=C(CO)N1CCC2(CC1)OOC1(O2)C2CC3CC(C2)CC1C3 (centres undefined)
- IC50 (Plasmodium falciparum [3]): 0.3 ng/mL (≈ 0.928 nM)
- IC50 (Plasmodium falciparum [4]): 0.6 ng/mL (≈ 1.86 nM)
- Activity (Plasmodium berghei [5]): 92%
- Activity (Plasmodium berghei [6]): 99.8%
- Activity (Mus musculus [1]): 7 days
- Activity (Mus musculus [2]): 8 days
- logP [7]: 2.4

Compound: CN1CCN(C(=O)N2CCC3(CC2)OOC2(O3)C3CC4CC(C3)CC2C4)CC1 (centres undefined)
- IC50 (Plasmodium falciparum [3]): 0.2 ng/mL (≈ 0.511 nM)
- IC50 (Plasmodium falciparum [4]): 0.22 ng/mL (≈ 0.562 nM)
- Activity (Mus musculus [1]): 7.3 days
- Activity (Mus musculus [2]): 8.3 days
- logD [8]: 2.6

Compound: C1CCC2(CC1)OOC1(O2)C2CC3CC(C2)CC1C3 (centres undefined)
- IC50 (Plasmodium falciparum [3]): 0.97 ng/mL (≈ 3.67 nM)
- IC50 (Plasmodium falciparum [4]): 1.4 ng/mL (≈ 5.3 nM)
- Activity (Plasmodium berghei [5]): 94%
- Activity (Plasmodium berghei [6]): >99.99%
- Activity (Mus musculus [1]): 7.2 days
- Activity (Mus musculus [2]): 11.9 days
- logP [7]: 6.1
